{
  "source": "patent US8658611B2",
  "about": "“Apoptosis-inducing agent for prostate cancer cells” (priority 2005, dated 2014)",
  "key": {"[1]": {"tested_on": "Normal cells OUMS 24 (human immortalized fibroblast)", "assay": "TUNEL staining after Ad-REIC plus HSP70 inhibitor or inducer", "format": "cell-based", "details": "OUMS24; Ad-REIC 20 MOI; agent 250 mM added 24 hours later; TUNEL 48 hours later"}, "[2]": {"tested_on": "prostate cancer cells PC3", "assay": "TUNEL staining after Ad-REIC plus HSP70 inhibitor or inducer", "format": "cell-based, human", "details": "Ad-REIC 20 MOI, agent 250 mM added 24 hours later, TUNEL 48 hours later", "protocol": "Normal cells OUMS 24 (human immortalized fibroblast) and prostate cancer cells PC3 were used for comparison. The cells were infected with Ad-REIC at 20 MOI. 24 hours later, an HSP70 inhibitor (heat shock protein inhibitor I, CALBIOCHEM, BIOCHEMICALS) and an HSP70 inducer (Geranyl-Geranyl Acetone) (250 mM each) were separately added to a culture solution. 48 hours later, TUNEL staining was performed to determine influence upon apoptosis. FIGS. 12 and 13 show staining images for OUMS24 and of PC3, respectively. In FIGS. 12 and 13, images on the left side indicate TUNEL-staining results and images on the right side indicate DAPI-staining results. […] That is, apoptosis was induced in normal cells with the use of the HSP70 inhibitor in combination. On the other hand, apoptosis expression was inhibited in cancer cells with the use of the HSP70 inducer in combination. Further, apoptosis induction was promoted with the use of the HSP70 inhibitor in combination."}},
  "data": [
    {"smiles": "O=CN1CC/C(=C\\c2ccc3c(c2)OCO3)C1=O", "note": "[HSP70 inhibitor]", "values": [
      {"measurement": "TUNEL-positive cells with combined use with Ad-REIC", "setting": "[1]", "result": "a large number of TUNEL-positive cells"},
      {"measurement": "TUNEL-positive cells with combined use with Ad-REIC, versus Ad-REIC alone", "setting": "[2]", "result": "greater than that obtained with the use of Ad-REIC alone"}
    ]}
  ]
}
